For 1 compound, Kd and binding results are on record in PMC2663033 (2009).

Assay [1] has as its system aptamer 1 (DNA, G4) GGGTAGGGCGGGTTGGG
Description: peroxidase activity titration (ABTS-H2O2, A421). The conditions noted are these: 20 mM K+, 200 mM Na+; 5.45 mM ABTS, 25 mM HEPES pH 8.0, 0.05% Triton X-100, 1% DMSO, 0.1 µM hemin.

Assay [2] relates to aptamer III (DNA, G4) AGGGACGGGAAGAAAAGGAAAATCCTTAAAATGTGGAGGGT
Briefly: UV-Vis, hyperchromicity of hemin Soret band. To be noted: 20 mM K+, 200 mM Na+; 25 mM HEPES pH 7.4, 0.05% Triton X-100, 1% DMSO; 1 µM complex; about 2 x affinity of aptamer 4.

For assay [3], the system named is aptamer II (DNA, G4) AGTCCGTGGTTGGTGTGGTTGGGGTGACT
Briefly: peroxidase activity (ABTS-H2O2). To be noted: 20 mM K+, 200 mM Na+; 25 mM HEPES pH 8.0, 0.05% Triton X-100, 1% DMSO; 1 µM hemin plus 1 µM aptamer.

For assay [4], the system named is aptamer 4 (DNA, G4) AGGGACGGGAAGAA/AAAATGTGGAGGGT
Briefly: UV-Vis, hyperchromicity of hemin Soret band. To be noted: 20 mM K+, 200 mM Na+; 25 mM HEPES pH 7.4, 0.05% Triton X-100, 1% DMSO; 1 µM complex.

Assay [5] deals with aptamer I (DNA, G4) AGTCCGTGGGTAGGGCGGGTTGGGGGTGACT
Briefly: peroxidase activity titration (ABTS-H2O2, A421). The conditions noted are these: 20 mM K+, 200 mM Na+; 5.45 mM ABTS, 25 mM HEPES pH 8.0, 0.05% Triton X-100, 1% DMSO, 0.1 µM hemin.

Consider `C=CC1=C(C)C2=Cc3c(C=C)c(C)c4[n]3[Fe]([Cl])[n]3c(c(C)c(CCC(=O)O)c3=CC3=NC(=C4)C(C)=C3CCC(=O)O)=CC1=N2`, for which the Kd was 258 ± 7 nM in assay [1] and 194 ± 10 nM in assay [5]. Besides, the binding entry in assay [2], in assay [3] and in assay [4] was “yes” each time.

As a reminder, the Kd is the concentration at which binding is half-saturated.
